Data reported in the NIST ThermoML archive (doi:10.1016/j.jct.2009.01.008).
Numbers after ± are expanded uncertainties.

Assays:
[1] = 101 kPa, Liquid, Linear variable-path acoustic interferometer
[2] = refractive index (Na D-line) (dimensionless); conditions: 298.15 K; 101.33 kPa; Liquid
[3] = xn = mol fraction of the nth substance listed; conditions: 101 kPa, Liquid, Linear variable-path acoustic interferometer

CC(C)CC(C)(C)C [2,2,4-trimethylpentane]
[1]
Conditions | speed of sound [m/s]
298.15 K | 1082.8 ± 1.8
308.15 K | 1041.1 ± 1.8
318.15 K | 1000 ± 1.8
328.15 K | 958.4 ± 1.8

Conditions | refractive index
[2] | 1.38905 ± 0.00021

CC(C)CC(C)(C)C [2,2,4-trimethylpentane] + COC(C)(C)C
[3], x2 = 0
Conditions | speed of sound [m/s]
298.15 K | 1082.8 ± 1.8
308.15 K | 1041.1 ± 1.8
318.15 K | 1000 ± 1.8
328.15 K | 958.4 ± 1.8

CC(C)CC(C)(C)C [2,2,4-trimethylpentane] + Cc1ccccc1
speed of sound [m/s], [3]
Conditions | 298.15 K | 308.15 K | 318.15 K | 328.15 K
x2 = 0 | 1082.8 ± 1.8 | 1041.1 ± 1.8 | 1000 ± 1.8 | 958.4 ± 1.8
x2 = 0.07776 | 1092.7 ± 1.8 | 1051.1 ± 1.8 | 1009.9 ± 1.8 | 969.3 ± 1.7
x2 = 0.1405 | 1101.3 ± 1.8 | 1059.7 ± 1.8 | 1018.5 ± 1.7 | 977.9 ± 1.7
x2 = 0.2059 | 1110.8 ± 1.8 | 1069.2 ± 1.7 | 1028.1 ± 1.7 | 987.5 ± 1.7
x2 = 0.2671 | 1120.3 ± 1.8 | 1078.7 ± 1.7 | 1037.6 ± 1.7 | 997 ± 1.7
x2 = 0.3385 | 1132.3 ± 1.7 | 1090.7 ± 1.7 | 1049.5 ± 1.7 | 1008.8 ± 1.7
x2 = 0.3976 | 1143 ± 1.7 | 1101.3 ± 1.7 | 1060.1 ± 1.7 | 1019.4 ± 1.7
x2 = 0.4724 | – | 1115.6 ± 1.7 | 1074.3 ± 1.7 | –
x2 = 0.5328 | 1170 ± 1.7 | – | 1086.9 ± 1.7 | 1046.1 ± 1.7
x2 = 0.5966 | 1184.2 ± 1.7 | 1142.3 ± 1.7 | 1100.9 ± 1.7 | 1060 ± 1.6
x2 = 0.6699 | 1201.9 ± 1.7 | 1159.9 ± 1.7 | 1118.4 ± 1.7 | 1077.5 ± 1.6
x2 = 0.7302 | 1217.5 ± 1.7 | 1175.4 ± 1.7 | – | 1092.8 ± 1.6
x2 = 0.7895 | – | – | 1150.3 ± 1.7 | –
x2 = 0.8001 | 1237.5 ± 1.7 | 1195.3 ± 1.7 | 1153.6 ± 1.7 | 1112.4 ± 1.6
x2 = 0.8681 | 1258.4 ± 1.7 | 1216.1 ± 1.7 | 1174.2 ± 1.7 | 1132.8 ± 1.6
x2 = 0.8691 | 1259 ± 1.7 | – | – | –
x2 = 0.9539 | 1288.1 ± 1.7 | 1245.4 ± 1.7 | 1203.3 ± 1.7 | –

COC(C)(C)C [2-methoxy-2-methylpropane]
[1]
Conditions | speed of sound [m/s]
298.15 K | 1036.4 ± 1.6
308.15 K | 990.8 ± 1.5
318.15 K | 945.3 ± 1.5

Conditions | refractive index
[2] | 1.36648 ± 0.00012
